Measured values: US9050353B2, “Use of icariin and epimedium flavonoids containing icariin to treat diseases associated with myelin sheath lesion” (Xuanwu Hospital of Capital Medical University, priority 2010, dated 2015)

What was measured:
[1] = system: experimental autoimmune encephalomyelitis (EAE) mice model; test: Nervous function damage score in EAE mice model; assay type: in vivo, C57BL/6J mice; conditions: peak of attack, scale 0-5
Description: (§1) Preparation of mice model and administration: experimental autoimmune encephalomyelitis (EAE) mice model is an important tool for studying various human demyelinating diseases of nervous system. In the present experiment, the preparation of EAE mice model was performed by immunizing female C57BL/6J mice with myelin sheath oligodendroglial cell surface glycoprotein MOG35-55. That is, the mice were subcutaneously injected at dorsal part of spinal column with 0.2 mL of MOG35-55 antigen elixir, and 0.2 ml of bordetella pertussis solution was intraperitoneally injected at the time of immunization injection and 48 h thereafter, respectively. Icariin was intragastrically administered after the last injection of bordetella pertussis solution, for consecutive 3 weeks.
Nervous function test method: the ethological changes of mice were observed by two experimenters every day using blind method. Scoring standard: 0 score, absence of symptom; 1 score, decrease of tail tension, evident slight gait awkward; 2 score, disappearance of tail tension, moderate gait abnormal, deficient in maintaining gesture; 3 score, limb strength weak; 4 score, limb paralysis; 5 score, near death or died.

[2] = system: myeloid tissue myelinoclasis in EAE mice model; test: Myelinoclasis of myeloid tissue, LFB staining, EAE mice; assay type: in vivo; conditions: scale 0-4
Description: as §1
Experimental objective: the myelinoclasis of myeloid tissue of EAE model mice were assayed by Luxol Fast Blue (LFB) staining, and the intervention effects of icariin on this pathological change were studied.
Experimental method: the mice were anesthetized with 10% chloral hydrate on the 29th day of experiment, fixed by perfusion of 4% paraformaldehyde, myeloid tissues were taken for making paraffin sections, section thickness […]. Stained with LFB, observed under microscope, and scored according to the following standard: 0 score, absence of myelinoclasis; 1 score, one small range of myelinoclasis; 2 score, 2 or 3 small ranges of myelinoclasis; 3 score, 1 to 2 large ranges of myelinoclasis; 4 score, large ranges of myelinoclasis accumulatively existing in 20% or more of white matter regions.

[3] = system: inflammatory cell infiltration in spinal cord tissues of EAE mice model; test: Inflammatory cell infiltration in spinal cord, HE staining, EAE mice; assay type: in vivo; conditions: scale 0-4
Description: as §1
Experimental objective: the pathological changes of spinal cord in EAE model, especially inflammatory cell infiltration situations was assayed by hematoxylin-eosin (HE) staining test, and the intervention effects of […] on these pathological changes were observed.
Experimental method: the mice were anesthetized with 10% chloral hydrate on the 28th day of experiment, fixed by perfusion of 4% paraformaldehyde, spinal cord tissues were taken for making paraffin sections, section thickness […]. Stained with HE, observed under microscope, and scored according to the following standard: 0 score, absence of cell infiltration; 1 score, spinal meninge cell infiltration; 2 score, 1 to 4 small ranges of cell infiltration around vessels; 3 score, 5 or more small ranges of cell infiltration around vessels, or one or more accumulatively substantial large range of cell infiltration; 4 score, a large number of cell infiltration ranges accumulatively existing in 20% or more of white matter regions.

IL-1 = test: Serum IL-1 content by ELISA, EAE mice; assay type: in vivo
Description: as §1
(§2) Experimental objective: interleukin-1 (IL-1) and IL-6 are important inflammatory cytokines, and have promoting effects on inflammatory reactions. This experiment used enzyme linked immunosorbent assay (ELISA) to measure contents of IL-1 and IL-6 in serums of EAE mice model, and the effects of icariin on these contents were observed.
(§3) Experimental method: mice were anesthetized with pentobarbital sodium, blood sample was taken from abdominal aorta, stood at room temperature for 2 h, centrifuged at 3000 rpm for 20 min, and supernatant was taken, stored at −80° C. for use. The operation was performed strictly according to the steps of specification of ELISA kit. Optical density was measured with ELIASA at 450 nm. The corresponding contents of IL-1 and IL-6 were calculated with the measured OD values on standard curves.

IL-6 = test: Serum IL-6 content by ELISA, EAE mice; assay type: in vivo
Description: as §1, §2, §3

[4] = system: peripheral blood CD4+ and CD8+ T cells; test: Peripheral blood T cell subgroup by flow cytometer, EAE mice; assay type: in vivo
Description: as §1
Experimental objective: one common feature of autoimmune diseases is the […]. In this experiment, the numbers of CD4+ and CD8+ cells in peripheral blood T cell subgroup of EAE mice mode were measured by flow cytometer (FACS), and the ratio of them was obtained; and the effects of icariin on these changes were observed.
Experimental method: mice were anesthetized with pentobarbital sodium, blood sample was taken from abdominal aorta, stood at room temperature for 2 h, centrifuged at 3000 rpm for 20 min, and cells were taken, added with anti-CD4+, CD8+ T cell antibodies with different markers, then the percentages of CD4+, CD8+ cells in T lymphocytes were measured by flow cytometer, and the CD4+/CD8+ T cells ratio was calculated.

CNPase = test: Spinal cord CNPase by Western blot, EAE mice; assay type: in vivo
Description: as §1
(§4) Experimental objective: myelin sheath is formed with prominences of oligodendroglial cells. CNPase, myelin basic protein (MBP) are marker proteins of mature oligodendroglial cells. The present experiment was to observe the expression of CNPase and MBP to represent the content of oligodendroglial cells in spinal cord of EAE model mice by Western blot method; and to study the effects of icariin on it.
(§5) Experimental method: the mice were anesthetized and sacrificed, fresh spinal cord was taken on ice, total protein was extracted by cleavage on ice, to prepare Western blot sample, added separately with CNPase, MBP primary antibodies and incubated, added with corresponding secondary antibodies, ECL colorated, Kodak film exposed. Pictures were analyzed with Image J software and standardized with β-actin.

[5] = system: myelin basic protein (MBP); test: Spinal cord MBP by Western blot, EAE mice; assay type: in vivo
Description: as §1, §4, §5

## COc1ccc(-c2oc3c(CC=C(C)C)c(OC4OC(CO)C(O)C(O)C4O)cc(O)c3c(=O)c2OC2OC(C)C(O)C(O)C2O)cc1 (stereo not drawn) [icariin, 3-((6-deoxymannopyranosyl)oxy)-7-(glucopyranosyloxy)-5-hydroxy-2-(4-methoxyphenyl)-8-(3-methyl-2-butenyl)-4H-1-benzopyran-4-ketone]
[1]; 3 mg/kg intragastric
  Nervous function damage score: 0.57 ± 0.49
[1]; 10 mg/kg intragastric
  Nervous function damage score: 0.32 ± 0.52
[1]; 30 mg/kg intragastric
  Nervous function damage score: 0.13 ± 0.34
[2]; 3 mg/kg
  Myelinoclasis (LFB staining score): 0.91 ± 0.21
[2]; 10 mg/kg
  Myelinoclasis (LFB staining score): 0.78 ± 0.16
[2]; 30 mg/kg
  Myelinoclasis (LFB staining score): 0.66 ± 0.20
[3]; 3 mg/kg
  Inflammatory cell infiltration (HE staining score): 2.08 ± 0.09
[3]; 10 mg/kg
  Inflammatory cell infiltration (HE staining score): 1.58 ± 0.16
[3]; 30 mg/kg
  Inflammatory cell infiltration (HE staining score): 1.18 ± 0.21
IL-1; 3 mg/kg
  IL-1 content: 0.119 ± 0.003 pg/mL
IL-1; 10 mg/kg
  IL-1 content: 0.114 ± 0.001 pg/mL
IL-1; 30 mg/kg
  IL-1 content: 0.113 ± 0.002 pg/mL
IL-6; 3 mg/kg
  IL-6 content: 0.147 ± 0.011 pg/mL
IL-6; 10 mg/kg
  IL-6 content: 0.142 ± 0.013 pg/mL
IL-6; 30 mg/kg
  IL-6 content: 0.126 ± 0.011 pg/mL
[4]; 3 mg/kg
  CD4 + T cells: 52.78 ± 3.30%
  CD4 +/CD8 + ratio: 1.25 ± 0.20
  CD8 + T cells: 42.61 ± 3.10%
[4]; 10 mg/kg
  CD4 + T cells: 58.89 ± 1.27 %
  CD4 +/CD8 + ratio: 1.62 ± 0.06
  CD8 + T cells: 36.43 ± 0.38 %
[4]; 30 mg/kg
  CD4 + T cells: 55.81 ± 1.41%
  CD4 +/CD8 + ratio: 1.39 ± 0.12
  CD8 + T cells: 40.20 ± 1.79%
CNPase; 3 mg/kg
  CNPase/actin Integration grey level: 1.16 ± 0.04
CNPase; 10 mg/kg
  CNPase/actin Integration grey level: 1.28 ± 0.07
CNPase; 30 mg/kg
  CNPase/actin Integration grey level: 1.33 ± 0.05
[5]; 3 mg/kg
  MBP/actin Integration grey level: 0.98 ± 0.13
[5]; 10 mg/kg
  MBP/actin Integration grey level: 1.07 ± 0.08
[5]; 30 mg/kg
  MBP/actin Integration grey level: 1.11 ± 0.06
